# Test results taken from patent US6649648B1, “Therapeutic methods and compositions involving isoflavones” (Novogen Research Pty Limited, priority 1996, dated 2003).
# Columns and labels:
# [1] = test system: rat aortic rings; experiment: Vascular reactivity, rat aortic rings with noradrenaline; type: cell-based; details: rat aortic ring, vasoconstrictor noradrenaline
# Experimental: Vascular reactivity studies using rat aortic rings is generally regarded as directly predictive of biological effects of candidate compounds in the treatment of the above conditions (Karapapanis, S. et al (1994) Heptology, 20, 6, 1516-1521). The inhibitory effect on restrictor responses in the aortic ring is measured in the presence of the vasoconstrictor noradrenaline according to the procedure of Karapapanis (supra).
# [2] = test system: LDL receptor; experiment: LDL Receptor Studies, LDL uptake into liver cells; type: cell-based
# Excerpt: 4. LDL Receptor Studies—Treatment of atherosclerosis, myocardial infarction, stroke and hypertension. This will establish that compounds which up-regulate the LDL receptor, lead to decreased circulating LDL, and therefore reduces the prospect of atherosclerosis, myocardial infarction, stroke and hypertension. Using an assay according to Stephan Z. F. and Yurachek, E. C. (1993) J. Lipid. Res. 34, 325-330, it is shown that the compounds of the formulae 1 to 19 are effective in increasing LDL uptake into liver cells, this being directly predictive of decrease of circulating LDL in the human blood stream.
# [3] = test system: HL60; experiment: Anti-cancer screening assay, inhibition of cell proliferation; type: cell-based, human
# Experimental: (§1) The activity of compounds of the present invention in inhibiting the growth of hormone responsive cancer cells were tested using the well characterised human responsive cancer cell lines K562 and HL60. The anti-cancer screening assay measured inhibition of cell proliferation which results in terminal differential cell death.
# [4] = test system: K562; experiment: as above; type: cell-based, human; details: cell line printed K563 at the result
# Experimental: as §1
# [5] = test system: bowel cancer; experiment: Patients with advanced or terminal bowel cancer; type: in vivo, human; details: intravenous infusion 2 g daily, three weeks, advanced bowel cancer
# Experimental: A patient suffering from advanced bowel cancer is treated daily for three weeks with an intravenous infusion of 2 g of the compound of the formula 14 dissolved in sterile saline. […] Progression of the tumour is also arrested over the treatment period.
# A second patient suffering from the same condition is treated in the same manner as the above patient with the exception that the 2 g dose of the active compound is administered by way of bolus injection.
# In a further series of experiments a group of patients suffering from terminal bowel cancer were treated by bolus daily injections (intravenous or intramuscular) of 2 g of a compound selected from one of the formulae 1 to 19. Over the test period there is shown to be a marked reduction in pain and discomfort. Tumour markers (carcino-embryonic antigen (CEA)) are reduced as evidenced by blood analysis and tumour spread decreased.
# [6] = test system: breast cancer; experiment: Prevention of breast cancer in high risk women, transdermal patch; type: in vivo, human; details: same manner and amount, six month trial period
# Experimental: This study investigated whether compounds 1 through 19 administered transdermally each day through a skin patch could be used to prevent breast cancer or metastatic cancers following cancer therapy. Patches were prepared that contained a lipophylic carrier cream which is readily absorbed through the skin. The cream comprised a glycerol cold cream which contained glycerin and peanut oil. A selected active compound from any one of compounds of the formulae 1 to 19 is mixed with the lipophylic cream such that each patch comprises 10 mg to 100 mg of active compound. The patch is applied to the skin each day and rapid absorption occurs. After two hours the patch is removed. Alternatively, the patch may be left on for a greater part of each day.
# [7] = test system: human LDL; experiment: Redox Test (LDL lipid oxidation in the presence of vitamin E); type: biochemical; details: for Redox Index: human LDL, 20% consumption of endogenous α-tocopherol, BHT 10 μm, lower value = higher activity
# Excerpt: 2. Redox Test—This test measures the ability of a compound to prevent LDL lipid oxidation in the presence of vitamin E. The test is a physiological test, vitamin E (α-tocopherol) is present with LDL in the blood stream, and LDL oxidation is believed to be one of the major factors of the development of atherosclerosis. The lower values, the higher the redox activity. […] The test indirectly assesses the ability of a compound to synergise with α-tocopherol in human LDL undergoing mild and chemically controlled oxidation. Oxidation is measured by the accumulation of cholesterylester hydroperoxides at a time point corresponding to 20% consumption of endogenous α-tocopherol. Butylated hydroxytoluene (BHT 10 μm) is used as a positive control. The redox index is measured by the relative extent of oxidation of LDL in the presence of the sample divided by the relative extent of oxidation in the absence of the test compounds. […] Tests were carried out according to Bowry, V. W. et al (1995) J. Bio. Chem. 270 (11) 5756-5763.
# [8] = test system: LDL; experiment: LDL Antioxidation Test; type: biochemical; details: for Lag Times / % Increase Over Control: LDL 0.25 mg/ml, 10 μm active compound, 4 μm Cu++; for Lag Times: control 20 min; for antioxidant potency (in words): conclusion from the LDL antioxidation test; for % Increase Over Control: lag time
# Experimental: 1. LDL Antioxidation Test—This test measures the ability of a compound to directly scavenge free radicals or to chelate transition metals. […] These tests were carried out according to the procedure of Esterbauer et al Free. Rad. Res. Coms. (1989) 6, 67-75. Briefly, LDL (0.25 mg/ml) is incubated with 10 μm active compound in the presence of 4 μm Cu^++, and LDL was assayed for oxidation by HPLC analysis.
compound,measurement,setting,value
"O=C1c2c(O)cc(O)cc2OCC1c1ccc(O)cc1 (stereo not shown) [dihydrogenestein, Dihydrogenistein]",inhibitory effect on vaso-constrictor responses to noradrenaline,[1],potent inhibitory effects on responses to noradrenaline
Oc1ccc([C@H]2COc3cc(O)ccc3C2)cc1 [equol],increase of LDL uptake into liver cells,[2],particularly active
same,inhibitory effect on vaso-constrictor responses to noradrenaline,[1],potent inhibitory effects on responses to noradrenaline
same,inhibition of growth of cell line,[3],potent inhibitors of growth
same,inhibition of growth of cell line,[4],potent inhibitors of growth
"CC(C(=O)c1c(O)cc(O)cc1O)c1ccc(O)cc1 (stereo not shown) [Compound 14, 6-hydroxy-O-demethylangolensin]",cancer markers,[5],reduction
same,pain and discomfort,[5],significantly reduced
same,progression of the tumour,[5],arrested
same,evidence of breast cancer or other metastatic cancer,[6],same beneficial results
"O=C1c2ccc(O)cc2OCC1c1ccc(O)cc1 (stereo not shown) [Dihydrodaidzein, dihydrodaidzein]",inhibitory effect on vaso-constrictor responses to noradrenaline,[1],potent inhibitory effects on responses to noradrenaline
Oc1ccc(C2=Cc3ccc(O)cc3OC2)cc1 [Dehydroequol],synergistic interaction with vitamin E to prevent oxidation,[7]; Redox Test,interacts synergistically with vitamin E to prevent oxidation
same,Redox Index,[7],4.5±1.2
same,Lag Times,[8],>140 min
same,antioxidant potency (in words),[8],extremely potent antixoidants
same,% Increase Over Control,[8],>600%
"Cc1cc(C(C)(C)C)c(O)c(C(C)(C)C)c1 [BHT, Butylated hydroxytoluene, reference compound]",Redox Index,[7],6.3
Tetrahydrodaidzein,inhibitory effect on vaso-constrictor responses to noradrenaline,[1],potent inhibitory effects on responses to noradrenaline
same,inhibition of growth of cell line,[3],strong inhibition
same,Lag Times,[8],>140 min
same,antioxidant potency (in words),[8],extremely potent antixoidants
same,% Increase Over Control,[8],>600%
"C=C(C(=O)c1ccc(O)cc1O)c1ccc(O)cc1 [Compound 11, 2-dehydro-O-demethylangolensin]",evidence of breast cancer or other metastatic cancer,[6],same beneficial results
